{
  "source": "patent US20170209579A1",
  "about": "“NON-INVASIVE RADIOFREQUENCY FIELD TREATMENT FOR CANCER THERAPY” (Baylor College of Medicine, priority 2014, published 2017)",
  "key": {"HepG2 xenograft": {"system": "HepG2 xenograft", "assay": "Orthotopic HepG2 xenografts in CB17 SCID mice, tumor mass", "format": "in vivo, mouse", "source_text": "For in vivo studies, an implanted mouse model of human HCC was generated in CB17SCID mice (Taconic, Hudson, N.Y.). Female mice between 4 and 5 weeks in age were purchased and acclimatized in M.D. Anderson Animal facilities for up to one week. All animals were handled, housed and studied in accordance with the Institutional Animal Care and Use Committee. Tumors were generated after orthotopic implantation of approximately 1.6 million cells into the liver of each mouse (10 mice per group). Bioluminescence imaging indicated tumor development in the majority of mice three weeks after implantation. Euthanasia was performed by carbon dioxide inhalation followed by cervical spine dislocation.\nCultured luciferase and GFP-expression human HCC cell lines (Hep3B and HepG2) were harvested from an exponentially growing culture and washed with PBS. The cells were re-suspended in 3 ml PBS and final centrifugation was performed at 1000 RPM for 5 minutes. Supernatant was discarded and the cell pellet was used for implantation. The concentration of cells achieved using this protocol was 160,000 cells per micro liter. The cells were kept on ice and animals were injected within 3-4 hours after final centrifugation.\nBefore surgery, hair was removed from the ventral surface of the abdomen using clippers. Mice were anesthetized using 2.5% isoflurane. The surgical field was sterilized with 70% (v/v) ethanol in water. Mice were placed supine on a heating pad and the surgical site was sterilized using povidone iodine swab sticks. After confirming induction of anesthesia, an approximately 1-cm transverse incision was made in the skin of the upper abdomen slightly left of the midline. Deeper layers of muscle and peritoneum were incised and hemostasis was achieved using silver nitrate chemical cautery sticks. By applying gentle pressure on the lower abdomen and lower chest, the left lobe of the liver was eviscerated. […]\nMice with confirmed tumors on bioluminescence were then randomized in groups of 10. […] Sample size was calculated using Stata SE 12.1 for Mac (College Station, Tex.). […]"}, "Mre11": {"system": "Mre11", "assay": "Colocalization of Mre11 with γ-H2AX foci at gemcitabine-stalled replication forks", "format": "cell-based, human", "details": "Hep3B", "source_text": "FIGS. 15A-15D provide inhibition of Mre11 and Rad51 recruitment at gemcitabine-stalled replication forks by hyperthermia. (15A) Hep3B cells were exposed to hyperthermia and/or gemcitabine. (15B) and (15C) Mre11 and Rad51 were recruited at gemcitabine-stalled replication forks. […] Scale bar=10 μm. (15D) Quantification of data from colocalization experiments. Data are mean Pearson correlation (a.u.) and error bars represent the SD from three independent experiments with 10 replicates each (*P<0.05, **P<0.01). Gem=Gemcitabine; HT=Hyperthermia; N/A=not applicable, i.e., in hyperthermia treated cells BrdU staining is not detected as distinct foci and therefore correlation could not be quantified; ns=not significant, by the Student unpaired two-sided t test in comparison with gemcitabine alone group. Also, see FIGS. 22-24. […]\nFor immunocytochemistry assay, an indirect immunofluorescence approach was used. […] Cells from an exponentially growing culture were counted and approximately 50,000 cells were seeded in each well of a 12-well plate. […]\nThe slides were sealed with a conventional nail polish hardener and stored at 4° C. until imaging. […] Exposure settings were set to maximize dynamic range initially and then kept constant across multiple samples to allow quantitative comparisons. […]"}},
  "data": [
    {"smiles": "Nc1ccn([C@@H]2O[C@H](CO)[C@@H](O)C2(F)F)c(=O)n1", "note": "[gemcitabine, 2′,2′-difluoro 2′-deoxycytidine]", "values": [
      {"measurement": "Mean tumor mass [±SD]", "setting": "HepG2 xenograft; RF then gemcitabine, weekly for three weeks", "value": "107 ± 64", "unit": "mg"},
      {"measurement": "Mean tumor mass [±SD]", "setting": "HepG2 xenograft; gemcitabine alone, weekly treatments for three weeks", "value": "170 ± 51", "unit": "mg"},
      {"measurement": "Mean tumor mass [±SD]", "setting": "HepG2 xenograft; gemcitabine then RF, weekly for three weeks", "value": "74 ± 45", "unit": "mg"},
      {"measurement": "mean Pearson correlation, Mre11 with γ-H2AX foci", "setting": "Mre11; gemcitabine alone (10 μg/ml)", "value": 0.37},
      {"measurement": "mean Pearson correlation, Mre11 with γ-H2AX foci", "setting": "Mre11; hyperthermia 42.5° C. 75 minutes then gemcitabine 10 μg/ml", "value": 0.23}
    ]}
  ]
}
